Reference: patent publication US11890287B2, “Therapeutic compounds and compositions for treating social disorders and substance use disorders” (Kinoxis Therapeutics Pty Ltd, priority 2015, dated 2024)

How the values were obtained:
male Sprague Dawley rats = assay: Methamphetamine-primed reinstatement; assay type: in vivo, rat; conditions: C25 10 mg/kg IP or SR49059 1 mg/kg IP before SOC-1 10 mg/kg
[1] = system: Fos-positive cells in brain regions of interest; assay: Fos immunohistochemistry in rat brain; assay type: in vivo, male Wistar rats; conditions: OT 1 mg/kg, SOC-1 5 mg/kg
Description: Fos immunohistochemistry was used to identify the neural “signature” of SOC-1 (5 mg/kg) in rat brain relative to injections of peripheral oxytocin (OT) (1 mg/kg). SOC-1 produces a similar overall pattern of neural activation and behavioural effects as OT. However, the effects are much larger and additional areas are activated by SOC-1 that are implicated in the regulation of social behaviour (e.g. lateral septum, medial preoptic area and supraoptic nucleus). SOC-1 produces powerful activation of OT-containing neurons in both the supraoptic (FIG. 6: (A)=vehicle; (B)=oxytocin; and (C)=SOC-1) and paraventricular nucleus of the hypothalamus.

HEK-293 cells = assay: Cell viability (Cell Titer Blue); assay type: cell-based; conditions: 48 hours; for Viability: mean ± SD
Description: (§1) No apparent cytotoxicity of SOC-1 has been seen in vitro or toxicity in vivo. In a test, SH-SY5Y neuroblastoma cells and HEK-293 cells (4×10^4 cells per well) were exposed to OT or SOC-1 (0.01-10 μM) for 48 hours, with daily media changes. Viability of cells was assessed after a 4 hour exposure to Cell Titer Blue (Promega).

[2] = system: SH-SY5Y neuroblastoma cells; assay: Cell viability (Cell Titer Blue); assay type: cell-based; conditions: 48 hours; for Viability: mean ± SD
Description: as §1

Wistar rats = assay: Biotelemetry of body temperature and heart rate; assay type: in vivo, rat; conditions: SR49059 10 mg/kg before SOC-1
Description: FIG. 7—The monitored body temperatures of Wistar rats administered vehicle, SOC-1 (5 mg/kg), or SOC-1 and the V1A receptor antagonist SR49059 (10 mg/kg).
FIG. 8—The monitored heart rates for Wistar rats administered vehicle, SOC-1 (5 mg/kg), or SOC-1 and the V1A receptor antagonist SR49059 (10 mg/kg).
However, the rats were not ataxic or comatose, they were simply in a relaxed quiescent state. […] Effects on body temperature and other behaviours are not blocked by pre-treatment with the vasopressin V1A receptor antagonist SR49059 (10 mg/kg). […] The data in these two studies was gathered with DataSciences International biotelemetry system.

In the case of COCc1nnc(N2CC(Oc3ccc(F)cc3Cl)C2)n1-c1ccc(OC)nc1 [C25, 5-(3-(3-(2-chloro-4-fluorophenoxy)azetidin-1-yl)-5-(methoxymethyl)-4H-1,2,4-triazol-4-yl)-2-methoxypyridine, reference compound], the “block of the attenuating effect of SOC-1 on methamphetamine-primed reinstatement” value (male Sprague Dawley rats) is reported as “failed to block the attenuating effect of SOC-1”.
Work on Cn1ncc2c1Nc1ccc(F)cc1NC2 [FB-SOC-2, 7-Fluoro-1-methyl-1,4,5,10-tetrahydrobenzo[b]pyrazolo[3,4-e][1,4]diazapine] yielded a melting point of 181 to 183 °C.
Cc1ccc2c(c1)NCc1cnn(C)c1N2 [FB-SOC-4, 1,7-Dimethyl-1,4,5,10-tetrahydrobenzo[b]pyrazolo[3,4-e][1,4]diazapine] showed a melting point of 172 to 173 °C.
Work on Cc1cccc2c1Nc1c(cnn1C)CN2 [FB-SOC-5, 1,9-Dimethyl-1,4,5,10-tetrahydrobenzo[b]pyrazolo[3,4-e][1,4]diazepine] yielded a melting point of 137 to 139 °C.
COc1ccc2c(c1)NCc1cnn(C)c1N2 [FB-SOC-6, 7-Methoxy-1-methyl-1,4,5,10-tetrahydrobenzo[b]pyrazolo[3,4-e][1,4]diazapine] showed a melting point of 126 to 128 °C.
In the case of CC[C@H](C)[C@@H]1NC(=O)[C@H](Cc2ccc(O)cc2)NC(=O)[C@@H](N)CSSC[C@@H](C(=O)N2CCC[C@H]2C(=O)N[C@@H](CC(C)C)C(=O)NCC(N)=O)NC(=O)[C@H](CC(N)=O)NC(=O)[C@H](CCC(N)=O)NC1=O [Oxytocin, oxytocin, reference compound], the “Mean number of Fos-positive cells, BNST (dorsolateral division)” value [1] is reported as 11.33, the “Mean number of Fos-positive cells, BNST (middle anterior part))” value [1] is reported as 5.83 and the “Mean number of Fos-positive cells, Central nucleus of the amygdala” value [1] is reported as 25.14. For the same compound, the “Mean number of Fos-positive cells, Lateral Parabrachial nucleus” value [1] was 19.14, the “Mean number of Fos-positive cells, Lateral septum (ventral)” value [1] was 9.17 and the “Mean number of Fos-positive cells, Locus Ceruleus” value [1] was 4.14. For the same compound, the “Mean number of Fos-positive cells, Medial preoptic area” value [1] was 3.8, the “Mean number of Fos-positive cells, Median preoptic nucleus” value [1] was 7.17 and the “Mean number of Fos-positive cells, Nucleus of Solitary Tract” value [1] was 31.68. The “Mean number of Fos-positive cells, PAG (ventrolateral)” value [1] was 6.57, the “Mean number of Fos-positive cells, Paraventircular nucleus” value [1] was 55.57 and the “Mean number of Fos-positive cells, Supraoptic nucleus” value [1] was 4.57. The “Mean percent of OT cells that were Fos positive, Paraventircular nucleus” value [1] was 22.07%, the “Mean percent of OT cells that were Fos positive, Supraoptic nucleus” value [1] was 13.5% and the Viability (HEK-293 cells; 0.01 μM) was 97.8 ± 6.6 percentage of vehicle viability. For the same compound, the Viability (HEK-293 cells; 0.1 μM) was 100.0 ± 3.2 percentage of vehicle viability, the Viability (HEK-293 cells; 1 μM) was 101.5 ± 3.7 percentage of vehicle viability and the Viability (HEK-293 cells; 10 μM) was 104.3 ± 2.6 percentage of vehicle viability. For the same compound, the differences in viability (HEK-293 cells; 0.01-10 μM) was “No significant differences in viability”, the Viability ([2]; 0.01 μM) was 100.4 ± 2.4 percentage of vehicle viability and the Viability ([2]; 0.1 μM) was 101.3 ± 1.0 percentage of vehicle viability. The Viability ([2]; 1 μM) was 100.2 ± 1.1 percentage of vehicle viability, the Viability ([2]; 10 μM) was 100.6 ± 2.9 percentage of vehicle viability and the differences in viability ([2]; 0.01-10 μM) was “No significant differences in viability”.
In the case of COc1ccc(S(=O)(=O)N2c3ccc(Cl)cc3[C@](O)(c3ccccc3Cl)[C@@H]2C(=O)N2CCC[C@H]2C(N)=O)cc1OC [SR49059, reference compound], the “block of SOC-1 effects on body temperature and other behaviours by pre-treatment” value (Wistar rats) is reported as “not blocked” and the “block of the attenuating effect of SOC-1 on methamphetamine-primed reinstatement” value (male Sprague Dawley rats) is reported as “failed to block the attenuating effect of SOC-1”.
